Measured values taken from patent US11708360B2, “N-substituted-dioxocyclobutenylamino-3-hydroxy-picolinamides useful as CCR6 inhibitors” (Pfizer Inc., priority 2018, dated 2023).
Like-named read-outs stand apart in the source and are kept apart here.

Assays:
CXCR2 = target: T1, CXCR2 (Homo sapiens, UniProt P25025); assay: Human Neutrophil Chemotaxis Assay; format: cell-based; design: Human neutrophils were purified from freshly drawn human whole blood; endogenous in cells; host or cells: primary human neutrophils from fresh whole blood
T1 sequence (P25025 1-360): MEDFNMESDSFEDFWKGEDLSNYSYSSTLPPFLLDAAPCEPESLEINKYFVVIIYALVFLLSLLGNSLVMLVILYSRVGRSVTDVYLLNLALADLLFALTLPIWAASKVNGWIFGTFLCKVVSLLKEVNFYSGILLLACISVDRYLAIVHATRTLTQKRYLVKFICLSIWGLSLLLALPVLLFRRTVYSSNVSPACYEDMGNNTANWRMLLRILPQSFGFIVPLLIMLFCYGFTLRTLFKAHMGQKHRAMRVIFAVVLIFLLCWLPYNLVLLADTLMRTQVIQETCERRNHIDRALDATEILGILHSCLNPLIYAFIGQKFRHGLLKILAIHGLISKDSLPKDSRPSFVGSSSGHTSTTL
Experimental: After 30 min, the labeled neutrophils were washed twice in chemotaxis buffer, resuspended as before and used immediately. For the assay, test compounds were tested in a dose-response format to determine IC50. Labeled neutrophils (50 μL) were pre-incubated with diluted test compound (50 μL) for 30 min in a 96-well plate (Greiner). Next, 100 μL of diluted compound was mixed with 100 μL of GROα (Peprotech #300-11, 2 nM) in the bottom portion of the chemotaxis chamber. The top portion (insert) of the chemotaxis system containing the FluoroBlok porous membrane was then assembled together. 50 μL of the pre-incubated neutrophils were added to the FluoroBlok insert (top portion) and chemotaxis measured by the neutrophils ability to migrate through the membrane towards the specific CXCR2 ligand, GROα.
IC50 values for compounds of the present invention (Table 12) were determined by the non-linear regression analysis of dose response curves.

CCR6 = target: T2, CCR6 (Homo sapiens, UniProt P51684); assay: CCR6+ T Cell Chemotaxis Assay; format: cell-based; settings: for T Cell Chemotaxis Selectivity: Table 13, T cell chemotaxis compared to neutrophil chemotaxis, NS = not selective for T cell chemotaxis compared to neutrophil chemotaxis
T2 construct: Human CD4+CCR6+CXCR3-T cells were isolated from leukopak from healthy donors; endogenous in cells
T2 sequence (P51684 1-374): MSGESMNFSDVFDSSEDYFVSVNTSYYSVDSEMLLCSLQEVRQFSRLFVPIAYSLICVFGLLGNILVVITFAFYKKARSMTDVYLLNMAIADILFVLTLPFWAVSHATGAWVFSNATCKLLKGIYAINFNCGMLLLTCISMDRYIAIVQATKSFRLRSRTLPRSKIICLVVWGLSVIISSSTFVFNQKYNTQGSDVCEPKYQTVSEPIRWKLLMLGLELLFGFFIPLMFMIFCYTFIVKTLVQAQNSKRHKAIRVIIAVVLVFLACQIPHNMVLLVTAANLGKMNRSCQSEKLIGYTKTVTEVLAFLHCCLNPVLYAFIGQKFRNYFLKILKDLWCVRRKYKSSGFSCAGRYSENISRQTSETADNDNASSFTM
Excerpt: Human CD4+CCR6+CXCR3-T cells were isolated from leukopak from healthy donors using EasySep™ Human Th17 Cell Enrichment Kit. […] Day 4 post activation, Dynabeads were removed from the culture. The activated T cells were maintained at 1-2×10^6 cells/mL for 15 days by feeding fresh growth media when needed.
For IC50 determination, the top and bottom of the chemotaxis chamber contained the same concentration of compound. DMSO was kept constant at 0.1% (v/v) in all wells. The final concentration of CCL20 (Peprotech 300-29A) in the bottom chamber is 0.5 nM. The fully assembled chemotaxis plate was placed in a cell culture incubator at 37° C., 5% CO2 for 1 h. After incubation, the top filter was removed, followed by a quick freeze of the bottom chamber at −80° C. for 1 h. The migrated cells in the bottom chamber were stained with CyQUANT dye (Life Technologies, C7026) for cell number determination.
IC50 values for compounds of the present invention (Table 11) were determined by the non-linear regression analysis of dose response curves.

[1] = Table 12, human neutrophils migrating towards the CXCR2 ligand GROα, read-out: IC50
[2] = Table 11, human CD4+CCR6+CXCR3- T cells, CCL20 0.5 nM in bottom chamber, 1 h at 37° C., read-out: IC50

Row | SMILES | IC50 (CXCR2; [1]) [nM] | IC50 (CCR6; [2]) [nM] | T Cell Chemotaxis Selectivity (CCR6) | also measured
1 | Cc1cn(C)nc1[C@H](Nc1c(Nc2ccnc(C(=O)N(C)C)c2O)c(=O)c1=O)C1(C)CC2(CC2)C1 (single isomer, unassigned) [Example 17] | 3160 | 5.9 | 535 | –
2 | Cc1nc([C@H](Nc2c(Nc3ccnc(C(=O)N(C)C)c3O)c(=O)c2=O)C2(C)CCCC2)c(C)o1 (single isomer, unassigned) [Example 34] | 2510 | 24 | 104 | R = CH3, T Cell Chemotaxis Selectivity (CCR6; Table 14, R = CH3): 104
3 | CCC1([C@@H](Nc2c(Nc3ccnc(C(=O)N(C)C)c3O)c(=O)c2=O)c2nn(C)cc2C)CCC1 (single isomer, unassigned) [Example 35] | 255 | 30 | 8 | –
4 | Cc1cn(C)nc1[C@H](Nc1c(Nc2ccnc(C(=O)N(C)C)c2O)c(=O)c1=O)[C@]1(C)CC(F)(F)CO1 (single isomer, unassigned) [Example 36] | 7130 | 32.3 | 220 | –
5 | [2H]C([2H])([2H])c1cn(C)nc1[C@H](Nc1c(Nc2ccnc(C(=O)N(C)C)c2O)c(=O)c1=O)C1(C)CCCC1 (single isomer, unassigned) [Example 39] | 502 | 6.5 | – | –
6 | Cc1cn(C)nc1[C@H](Nc1c(Nc2ccnc(C(=O)N3CCOCC3)c2O)c(=O)c1=O)C1(C)CCCC1 [Example 6, (R)-3-(((1,4-dimethyl-1H-pyrazol-3-yl)(1-methylcyclopentyl)methyl)amino)-4-((3-hydroxy-2-(morpholine-4-carbonyl)pyridin-4-yl)amino)cyclobut-3-ene-1,2-dione] | 586 | 11.6 | 51 | –
7 | Cc1cn(C)nc1[C@H](Nc1c(Nc2ccnc(C(=O)N3CCN(C)CC3)c2O)c(=O)c1=O)C1(C)CCCC1 [Example 7, (R)-3-(((1,4-Dimethyl-1H-pyrazol-3-yl)(1-methylcyclopentyl)methyl)amino)-4-((3-hydroxy-2-(4-methylpiperazine-1-carbonyl)pyridin-4-yl)amino)cyclobut-3-ene-1,2-dione] | 2160 | 29.8 | 72 | –
8 | CN(C)C(=O)c1nccc(Nc2c(N[C@@H](c3nn(C)cc3Cl)C3(C)CCCC3)c(=O)c2=O)c1O [Example 8, (R)-4-((2-(((4-Chloro-1-methyl-1H-pyrazol-3-yl)(1-methylcyclopentyl)methyl)amino)-3,4-dioxocyclobut-1-en-1-yl)amino)-3-hydroxy-N,N-dimethylpicolinamide] | 103 | 3 | 34 | –
9 | CN(C)C(=O)c1nccc(Nc2c(N[C@H](c3nn(C)cc3Cl)C3(C)CCCC3)c(=O)c2=O)c1O [Example 9, (S)-4-((2-(((4-Chloro-1-methyl-1H-pyrazol-3-yl)(1-methylcyclopentyl)methyl)amino)-3,4-dioxocyclobut-1-en-1-yl)amino)-3-hydroxy-N,N-dimethylpicolinamide] | 2750 | 59.7 | 46 | –
10 | COc1cn(C)nc1[C@H](Nc1c(Nc2ccnc(C(=O)N(C)C)c2O)c(=O)c1=O)C1(C)CCCC1 [Example 12, (R)-3-Hydroxy-4-((2-(((4-methoxy-1-methyl-1H-pyrazol-3-yl)(1-methylcyclopentyl)methyl)amino)-3,4-dioxocyclobut-1-en-1-yl)amino)-N,N-dimethylpicolinamide] | 107 | 1.7 | 63 | –
11 | Cc1ccc([C@H](Nc2c(Nc3cccc(C(=O)N(C)C)c3O)c(=O)c2=O)C2(C)COC2)o1 [Example 50, reference compound] | – | – | – | IC50 (CXCR2; Table 17, WO 2013/061005 comparator compounds, read-out: IC50 (nM) CXCR2 Neutrophil, GROα Chemotaxis): 121 nM
12 | CC[C@@H](Nc1c(Nc2ccnc(C(=O)N(C)C)c2O)c(=O)c1=O)c1cc(C(C)C)co1 [Example 112, reference compound] | – | – | – | IC50 (CXCR2; Table 15, WO 2010/131145 comparator compounds, read-out: IC50 (nM) CXCR2 Neutrophil, GROα Chemotaxis): 23.2 nM

Continued, in another order:

Row | IC50 (CXCR2; [1]) [nM] | IC50 (CCR6; [2]) [nM] | T Cell Chemotaxis Selectivity (CCR6) | SMILES | also measured
13 | 524 | 5.8 | – | Cc1cn(C)nc1[C@H](Nc1c(Nc2ccnc(C(=O)N(C)C)c2O)c(=O)c1=O)C1(C)CCCC1 [Example 1, (R)-4-((2-(((1,4-Dimethyl-1H-pyrazol-3-yl)(1-methylcyclopentyl)methyl)amino)-3,4-dioxocyclobut-1-en-1-yl)amino)-3-hydroxy-N,N-dimethylpicolinamide] | IC50 (CXCR2; Table 14, R = CH3, read-out: R = CH3, IC50 (nM) CXCR2 Neutrophil, GROα Chemotaxis): 524 nM; IC50 (CCR6; Table 14, R = CH3, read-out: R = CH3, IC50 (nM) CCR6 T cell, CCL20 Chemotaxis): 5.8 nM
14 | 7310 | 186 | – | Cc1cn(C)nc1[C@@H](Nc1c(Nc2ccnc(C(=O)N(C)C)c2O)c(=O)c1=O)C1(C)CCCC1 [Example 2, (S)-4-((2-(((1,4-Dimethyl-1H-pyrazol-3-yl)(1-methylcyclopentyl)methyl)amino)-3,4-dioxocyclobut-1-en-1-yl)amino)-3-hydroxy-N,N-dimethylpicolinamide] | –
15 | 1530 | 2.3 | 665 | Cc1cn(C)nc1[C@H](Nc1c(Nc2ccnc(C(=O)N(C)C(C)C)c2O)c(=O)c1=O)C1(C)CCCC1 [Example 3, (R)-4-((2-(((1,4-Dimethyl-1H-pyrazol-3-yl)(1-methylcyclopentyl)methyl)amino)-3,4-dioxocyclobut-1-en-1-yl)amino)-3-hydroxy-N-isopropyl-N-methylpicolinamide] | –
16 | 886 | 6.3 | 140 | CCN(C)C(=O)c1nccc(Nc2c(N[C@@H](c3nn(C)cc3C)C3(C)CCCC3)c(=O)c2=O)c1O [Example 4, (R)-4-((2-(((1,4-Dimethyl-1H-pyrazol-3-yl)(1-methylcyclopentyl)methyl)amino)-3,4-dioxocyclobut-1-en-1-yl)amino)-N-ethyl-3-hydroxy-N-methylpicolinamide] | –
17 | – | 922 | – | CCN(C)C(=O)c1nccc(Nc2c(N[C@H](c3nn(C)cc3C)C3(C)CCCC3)c(=O)c2=O)c1O [Example 5, (S)-4-((2-(((1,4-Dimethyl-1H-pyrazol-3-yl)(1-methylcyclopentyl)methyl)amino)-3,4-dioxocyclobut-1-en-1-yl)amino)-N-ethyl-3-hydroxy-N-methylpicolinamide] | –
18 | 175 | 8.7 | 20 | CC(C)N(C)C(=O)c1nccc(Nc2c(N[C@@H](c3nn(C)cc3Cl)C3(C)CCCC3)c(=O)c2=O)c1O [Example 10, (R)-4-((2-(((4-Chloro-1-methyl-1H-pyrazol-3-yl)(1-methylcyclopentyl)methyl)amino)-3,4-dioxocyclobut-1-en-1-yl)amino)-3-hydroxy-N-isopropyl-N-methylpicolinamide] | –
19 | 210 | 1.9 | 110 | COc1cn(C)nc1[C@H](Nc1c(Nc2ccnc(C(=O)N(C)C(C)C)c2O)c(=O)c1=O)C1(C)CCCC1 [Example 11, (R)-3-Hydroxy-N-isopropyl-4-((2-(((4-methoxy-1-methyl-1H-pyrazol-3-yl)(1-methyl-cyclopentyl)methyl)amino)-3,4-dioxocyclobut-1-en-1-yl)amino)-N-methylpicolinamide] | –
